Test results as given in patent US8039493B2, “Biaryl sulfonamide derivatives” (Hoffmann-La Roche Inc., priority 2008, dated 2011).

Key:
human LXR beta = biological target: T1, human LXR beta (Homo sapiens, UniProt P55055); test: Radioligand binding assay (scintillation proximity), LXR beta-LBD; conditions: LXR beta-LBD on SPA beads, read-out: LXRbeta Binding IC50
T1 construct: human LXR beta (aa 155 to 460); made in house; host or cells: E. coli BL21 (pLysS)
T1 sequence (P55055 155-460): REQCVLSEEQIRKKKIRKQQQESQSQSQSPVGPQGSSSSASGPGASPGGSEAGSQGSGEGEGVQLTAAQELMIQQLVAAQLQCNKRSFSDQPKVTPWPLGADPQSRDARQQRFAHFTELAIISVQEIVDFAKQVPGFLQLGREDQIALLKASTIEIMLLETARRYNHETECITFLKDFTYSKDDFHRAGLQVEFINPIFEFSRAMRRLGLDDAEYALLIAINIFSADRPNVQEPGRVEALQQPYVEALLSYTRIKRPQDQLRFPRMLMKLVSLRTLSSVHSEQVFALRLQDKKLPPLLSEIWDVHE
Description: (§1) The following tests were carried out in order to determine the activity of the compounds of the present invention. […] Mammalian expression vectors were constructed to express full-length human LXR alpha and LXR beta. […] To accomplish this, the portions of the sequences encoding the LBDs were amplified from the full-length clones by PCR and then subcloned into the plasmid vectors.
(§2) Induction, expression, and purification of LBD proteins were performed in E. coli strain BL21 (pLysS) cells by standard methods (Ref: Current Protocols in Molecular Biology, Wiley Press, edited by Ausubel et al).
(§3) Radioligand Binding Assay
(§4) LXR alpha and LXR beta receptor binding were assayed in buffer consisting of 50 mM HEPES, pH 7.4, 10 mM NaCl, 5 mM MgCl2. For each 96-well reaction, 500 ng of LXRα-LBD or 700 ng of LXR beta-LBD proteins were bound to 80 μg or 40 μg SPA beads respectively, in a final volume of 50 μl by shaking. The resulting slurry was incubated for 1 h at RT and centrifuged for 2 min at 1300×g. The supernatant containing unbound protein was removed, and the semi-dry pellet containing the receptor-coated beads was re-suspended in 50 μl of buffer. Radioligand (eg. 100,000 dpm of (N-(2,2,2-trifluoroethyl)-N-[4-(2,2,2-trifluoro-1-hydroxy-1-trifluoromethylethyl)-phenyl]-benzenesulfonamide)) was added, and the reaction incubated at RT for 1 h in the presence of test compounds, and then scintillation proximity counting was performed. All binding assays were performed in 96-well plates and the amount of bound ligand was measured on a Packard TopCount using OptiPlates (Packard). Dose response curves were measured within a range of concentration from 10^−10 M to 10^−4 M.

human LXR alpha = biological target: T2, human LXR alpha (Homo sapiens, UniProt Q13133); test: Radioligand binding assay (scintillation proximity), LXRα-LBD; conditions: LXRα-LBD on SPA beads, read-out: LXRalpha Binding IC50
T2 construct: human LXR alpha (aa 164 to 447); made in house; host or cells: E. coli BL21 (pLysS)
T2 sequence (Q13133 164-447): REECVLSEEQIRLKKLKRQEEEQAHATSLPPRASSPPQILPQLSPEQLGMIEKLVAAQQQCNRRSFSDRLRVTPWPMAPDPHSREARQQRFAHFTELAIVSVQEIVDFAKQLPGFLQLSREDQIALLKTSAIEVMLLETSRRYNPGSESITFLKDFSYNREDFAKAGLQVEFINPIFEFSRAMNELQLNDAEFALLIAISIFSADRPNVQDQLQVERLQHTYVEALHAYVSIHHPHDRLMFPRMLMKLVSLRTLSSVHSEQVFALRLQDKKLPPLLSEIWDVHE
Description: as §1, §2, §3, §4

For `CC(C)N(Cc1ccc(-c2cccc(S(C)(=O)=O)c2)s1)S(=O)(=O)c1ccccc1C(F)(F)F` [Example 30, N-Isopropyl-N-[5-(3-methanesulfonyl-phenyl)-thiophen-2-ylmethyl]-2-trifluoromethyl-benzenesulfonamide], the IC50 (human LXR beta) was 0.47 µM and the IC50 (human LXR alpha) was 7.86 µM.

`CC(C)CN(Cc1cc(-c2cncc(S(C)(=O)=O)c2)cs1)S(=O)(=O)c1ccccc1Cl` [Example 55, 2-Chloro-N-isobutyl-N-[4-(5-methanesulfonyl-pyridin-3-yl)-thiophen-2-ylmethyl]-benzenesulfonamide] gave an IC50 (human LXR beta) of 0.083 µM and an IC50 (human LXR alpha) of 2.53 µM.

For `CS(=O)(=O)c1cccc(-c2ccc(CN(Cc3ccccc3F)S(=O)(=O)c3ccccc3C(F)(F)F)s2)c1` [Example 33, N-(2-Fluoro-benzyl)-N-[5-(3-methanesulfonyl-phenyl)-thiophen-2-ylmethyl]-2-trifluoromethyl-benzenesulfonamide], the IC50 (human LXR beta) was 0.0066 µM and the IC50 (human LXR alpha) was 0.0135 µM.

`CC(C)CN(Cc1ccc(-c2cccc(S(C)(=O)=O)c2)s1)S(=O)(=O)c1ccccc1Cl` [Example 5, 2-Chloro-N-isobutyl-N-[5-(3-methanesulfonyl-phenyl)-thiophen-2-ylmethyl]-benzenesulfonamide] showed an IC50 (human LXR beta) of 0.102 µM and an IC50 (human LXR alpha) of 1.17 µM.

With `CC(C)CN(Cc1cncc(-c2cccc(S(C)(=O)=O)c2)c1)S(=O)(=O)c1ccccc1Cl` [Example 44, 2-Chloro-N-isobutyl-N-[5-(3-methanesulfonyl-phenyl)-pyridin-3-ylmethyl]-benzenesulfonamide] the IC50 (human LXR beta) was 0.03 µM and the IC50 (human LXR alpha) was 3.44 µM.

Compound `COCCN(Cc1ccc(-c2cccc(S(C)(=O)=O)c2)s1)S(=O)(=O)c1ccccc1C(F)(F)F` [Example 35, N-[5-(3-Methanesulfonyl-phenyl)-thiophen-2-ylmethyl]-N-(2-methoxy-ethyl)-2-trifluoromethyl-benzenesulfonamide] has an IC50 (human LXR beta) of 0.116 µM and an IC50 (human LXR alpha) of 0.975 µM.
